Measurements: PubChem BioAssay AID1845202 (Molecular Pharmacology Branch, DTP, NCI, 2023)

System: DMS 114 tumor spheroids, viability % test/control
Assay: Anticancer human tumor DMS 114 cell line growth inhibition;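 also: spheroids exposed to compounds for 7 days before read-out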;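 as to viability, T/C: luminescence used as a proxy for viable cells; 100% = DMSO vehicle control viability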
Conditions: spheroids with HUVEC and MSC; for IC50: curve of first compound; for viability, T/C: stronger effect = lower value
Outline: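 Complex spheroids of malignant cells with endothelial cells and mesenchymal stem cells; agents alone or combined, from near clinical Cmax (or 10 microM if unknown) down in half-log steps, 0.25% DMSO final.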

`COc1ccc([C@@H](O)c2cc(-c3ncnc4cc(N5CCOCC5)ccc34)c(F)cc2Cl)nn1` + CC[C@@]1(O)C(=O)OCc2c1cc1n(c2=O)Cc2cc3c(CN(C)C)c(O)ccc3nc2-1 showed an IC50 (second compound 0.003 µM) of 5390 nM, an IC50 (second compound 0.00949 µM) of 1760 nM and an IC50 (second compound 0.03 µM) of under 31.6 nM. For the same compound, the IC50 (second compound 0.0949 µM) was under 31.6 nM, the IC50 (second compound 0.3 µM) was under 31.6 nM and the viability, T/C (second compound 0.003 µM, first compound 0.0316 µM) was 116%. The viability, T/C (second compound 0.003 µM, first compound 0.1 µM) was 110%, the viability, T/C (second compound 0.003 µM, first compound 0.316 µM) was 109% and the viability, T/C (second compound 0.003 µM, first compound 1 µM) was 106%. For the same compound, the viability, T/C (second compound 0.003 µM, first compound 3.16 µM) was 69%, the viability, T/C (second compound 0.003 µM, first compound 10 µM) was 27.9% and the viability, T/C (second compound 0.00949 µM, first compound 0.0316 µM) was 89.9%. For the same compound, the viability, T/C (second compound 0.00949 µM, first compound 0.1 µM) was 73.8%, the viability, T/C (second compound 0.00949 µM, first compound 0.316 µM) was 78.9% and the viability, T/C (second compound 0.00949 µM, first compound 1 µM) was 57.7%. It also gave a viability, T/C (second compound 0.00949 µM, first compound 3.16 µM) of 40.2%, a viability, T/C (second compound 0.00949 µM, first compound 10 µM) of 17.3% and a viability, T/C (second compound 0.03 µM, first compound 0.0316 µM) of 30.8%. The viability, T/C (second compound 0.03 µM, first compound 0.1 µM) was 32.4%, the viability, T/C (second compound 0.03 µM, first compound 0.316 µM) was 32.8% and the viability, T/C (second compound 0.03 µM, first compound 1 µM) was 25.5%. For the same compound, the viability, T/C (second compound 0.03 µM, first compound 3.16 µM) was 13.7%, the viability, T/C (second compound 0.03 µM, first compound 10 µM) was 13.5% and the viability, T/C (second compound 0.0949 µM, first compound 0.0316 µM) was 16.2%. For the same compound, the viability, T/C (second compound 0.0949 µM, first compound 0.1 µM) was 16.6%, the viability, T/C (second compound 0.0949 µM, first compound 0.316 µM) was 16.4% and the viability, T/C (second compound 0.0949 µM, first compound 1 µM) was 14%. For the same compound, the viability, T/C (second compound 0.0949 µM, first compound 3.16 µM) was 10.1%, the viability, T/C (second compound 0.0949 µM, first compound 10 µM) was 7.97% and the viability, T/C (second compound 0.3 µM, first compound 0.0316 µM) was 10.7%. The viability, T/C (second compound 0.3 µM, first compound 0.1 µM) was 9.61%, the viability, T/C (second compound 0.3 µM, first compound 0.316 µM) was 9.29% and the viability, T/C (second compound 0.3 µM, first compound 1 µM) was 10.1%. The viability, T/C (second compound 0.3 µM, first compound 3.16 µM) was 6.94% and the viability, T/C (second compound 0.3 µM, first compound 10 µM) was 5.57%.

Work on `CNCc1ccc(-c2cc(-c3nc(-c4ccc(S(=O)(=O)C(C)C)cc4)cnc3N)on2)cc1` + COc1cc2c(cc1O)CCNC21CSC2c3c(OC(C)=O)c(C)c4c(c3C(COC1=O)N1C(O)C3Cc5cc(C)c(OC)c(O)c5C(C21)N3C)OCO4 yielded an IC50 (second compound 30 pM) of 115 nM, an IC50 (second compound 94.9 pM) of 65 nM and an IC50 (second compound 0.0003 µM) of under 9.49 nM. For the same compound, the IC50 (second compound 0.000949 µM) was under 9.49 nM, the IC50 (second compound 0.003 µM) was under 9.49 nM and the viability, T/C (second compound 30 pM, first compound 0.00949 µM) was 96.4%. For the same compound, the viability, T/C (second compound 30 pM, first compound 0.03 µM) was 94.3%, the viability, T/C (second compound 30 pM, first compound 0.0949 µM) was 53.1% and the viability, T/C (second compound 30 pM, first compound 0.3 µM) was 20.8%. For the same compound, the viability, T/C (second compound 30 pM, first compound 0.949 µM) was 2.84%, the viability, T/C (second compound 30 pM, first compound 3 µM) was 0.19% and the viability, T/C (second compound 94.9 pM, first compound 0.00949 µM) was 93.9%. For the same compound, the viability, T/C (second compound 94.9 pM, first compound 0.03 µM) was 70.5%, the viability, T/C (second compound 94.9 pM, first compound 0.0949 µM) was 41.3% and the viability, T/C (second compound 94.9 pM, first compound 0.3 µM) was 12.2%. The viability, T/C (second compound 94.9 pM, first compound 0.949 µM) was 2.28%, the viability, T/C (second compound 94.9 pM, first compound 3 µM) was 0.17% and the viability, T/C (second compound 0.0003 µM, first compound 0.00949 µM) was 38.6%. It also gave a viability, T/C (second compound 0.0003 µM, first compound 0.03 µM) of 28.3%, a viability, T/C (second compound 0.0003 µM, first compound 0.0949 µM) of 17.8% and a viability, T/C (second compound 0.0003 µM, first compound 0.3 µM) of 11.7%. The viability, T/C (second compound 0.0003 µM, first compound 0.949 µM) was 1.89%, the viability, T/C (second compound 0.0003 µM, first compound 3 µM) was 0.25% and the viability, T/C (second compound 0.000949 µM, first compound 0.00949 µM) was 4.46%. For the same compound, the viability, T/C (second compound 0.000949 µM, first compound 0.03 µM) was 4.77%, the viability, T/C (second compound 0.000949 µM, first compound 0.0949 µM) was 3.57% and the viability, T/C (second compound 0.000949 µM, first compound 0.3 µM) was 3.71%. The viability, T/C (second compound 0.000949 µM, first compound 0.949 µM) was 0.67%, the viability, T/C (second compound 0.000949 µM, first compound 3 µM) was 0.15% and the viability, T/C (second compound 0.003 µM, first compound 0.00949 µM) was 0.28%. It also gave a viability, T/C (second compound 0.003 µM, first compound 0.03 µM) of 0.28%, a viability, T/C (second compound 0.003 µM, first compound 0.0949 µM) of 0.31% and a viability, T/C (second compound 0.003 µM, first compound 0.3 µM) of 0.26%. The viability, T/C (second compound 0.003 µM, first compound 0.949 µM) was 0.23% and the viability, T/C (second compound 0.003 µM, first compound 3 µM) was 0.25%.
